Measurements: patent US4703110A, “Benzoic acid derivatives having a para substituent which is a substituted phenyl group connected by a linking radical; useful in neoplastic cell differentiation and diagnosis” (Shudo; Koichi, priority 1984, dated 1987)

What was measured:
[1] = system: human acute promyelocytic leukemia cells (HL-60); experiment: Differentiation of HL-60 cells, morphological changes of nuclei (Wright-Giemsa); format: cell-based; conditions: HL-60, 4 days; test concentration not stated
Procedure: The HL-60 cells are cultured in plastic flasks in RPMI-1640 medium supplemented with 5% heat inactivated fetal calf serum and antibiotics (penicillin G and streptomycin). The cells (3×10^4 /ml) were cultured with a compound of the present invention for 4 days. Growth inhibition of the cells by the test compounds was determined by counting the number of cells by microscope and relative ratio was examined by taking the number of cells by control (without test compound) as 100%. The cells are fixed and stained with Wright-Giemsa to examine the morphological changes of the nuclei.

[2] = system: human acute promyelocytic leukemia cells (HL-60); experiment: Reduction of nitro-blue tetrazolium (NBT) by treated HL-60 cells; format: cell-based; conditions: HL-60, 5 days incubation, TPA 200 ng/ml, 0.1% NBT, 20 minutes at 37° C.
Procedure: The biochemical activity of cells treated with the compound was measured as follows:
The cells after 5 days incubation are centrifuged and diluted with RPMI-1640 medium supplemented with 5% fetal calf serum, to provide a definite number of the cells. To the diluted cell suspension are then added 200 ng/ml of […] (TPA) and the resulting culture medium is then incubated for 20 minutes at 37° C. in the presence of 0.1% of NBT. Thus, the mature differentiated cells containing blue-black formazan is counted by microscopy, so that the ratio of the cells having the ability to reduce NBT, to total cells, can be calculated.

[3] = system: HL-60 transplanted to nude mice; experiment: Treatment of nude mice transplanted with HL-60; format: in vivo, nude mouse (BALB/c, nu/nu); conditions: per os, 200 mg/kg/day, days 9, 14 and 17 after transplantation; measured 4, 6, 8 and 11 days after first administration
Procedure: A test of treatment of nude mice, to which HL-60 have been transplanted, with a compound of the present invention is performed as follows:
A test compound (e.g., p-(5,6,7,8-tetrahydro-5,5,8,8-tetramethyl-2-naphthylcarbamoyl)benzoic acid) is suspended in 10% (v/v) Tween 80 in a concentration of 10 mg/ml. Cells (5×10^7) of HL-60 were transplanted subcutaneously to a nude mouse (BALB/c, nu/nu female Nihon Clea).
At the end of days 9, 14 and 17 after the transplantation, 0.1 ml of the suspension per 10 g of body weight of mouse were administrated per os two times at intervals of 7 hours (200 mg/kg/day).

| Compound | Banded and Segmented Neutrophils [1] [%] | Myelocytes and Metamyelocytes [1] [%] | Promyelocytes [1] [%] | Reductivity of NBT [2] [%] | Tumor growth [3] |
| --- | --- | --- | --- | --- | --- |
| CCc1ccc(C(=O)C=Cc2ccc(C(=O)OC)cc2)cc1CC [H Et Et H H OCH3 drawing 7] | 8 | 54 | 38 | 72 |  |
| COC(=O)c1ccc(C2OC2c2ccc3c(c2)C(C)(C)CCC3(C)C)cc1 (stereo not shown) [H drawing 10 H H OCH3 drawing 9] | 18 | 63 | 19 | 78 |  |
| COC(=O)c1ccc(C2OC2(C)c2ccc3c(c2)C(C)(C)CCC3(C)C)cc1 (stereo not shown) [H drawing 10 H H OCH3 drawing 11] | 9 | 79 | 12 | 81 |  |
| CC1(C)CCC(C)(C)c2cc([N+]([O-])=Nc3ccc(C(=O)O)cc3)ccc21 [H drawing 12 H H OH drawing 13] | 7 | 53 | 40 | 70 |  |
| COC(=O)c1ccc(C2OC2c2cccc(C(C)(C)C)c2)cc1 (stereo not shown) [H tBu H H H OCH3 drawing 9] | 9 | 69 | 20 | 70 |  |
| CC(C)(C)c1cc(C(=O)C=Cc2ccc(C(=O)O)cc2)cc(C(C)(C)C)c1 [No. 8] | 16 | 82 | 2 | 95 |  |
| CC(C)(C)c1ccc(C(=O)C=Cc2ccc(C(=O)O)cc2)cc1 [No. 9] | 6 | 48 | 46 | 68 |  |
| CC1(C)CCC(C)(C)c2cc(C(=O)C=Cc3ccc(C(=O)O)cc3)ccc21 [No. 11] | 12 | 86 | 2 | 95 |  |
| COC(=O)c1ccc(C=CC(=O)c2ccc3c(c2)C(C)(C)CCC3(C)C)cc1 [No. 13] | 4 | 91 | 5 | 97 |  |
| CC(C)c1ccc(NC(=O)c2ccc(C(=O)O)cc2)cc1C(C)C [No. 30] | 11 | 82 | 7 | 90 |  |
| COC(=O)c1ccc(C(=O)Nc2ccc3c(c2)C(C)(C)CCC3(C)C)cc1 [No. 34] | 12 | 85 | 3 | 97 |  |
| CC1(C)CCC(C)(C)c2cc(NC(=O)c3ccc(C(=O)O)cc3)ccc21 [No. 35, p-(5,6,7,8-tetrahydro-5,5,8,8-tetramethyl-2-naphthylcarbamoyl)benzoic acid] | 19 | 78 | 3 | 98 | tumor growth was clearly suppressed |
| CC(C)c1ccc(N=Nc2ccc(C(=O)O)cc2)cc1C(C)C [No. 50] | 11 | 50 | 39 | 55 |  |
| COC(=O)c1ccc(N=Nc2ccc3c(c2)C(C)(C)CCC3(C)C)cc1 [No. 57] | 10 | 49 | 41 | 60 |  |
| CC1=C(/C=C/C(C)=C/C=C/C(C)=C/C(=O)O)C(C)(C)CCC1 [Retinoic acid, reference compound] | 4 | 71 | 25 | 75 |  |
